Experimental data from the NIST ThermoML archive (doi:10.1016/j.fluid.2008.01.004).

Assay: mn = molality of the nth substance listed, in mol/kg
Settings: 101 kPa, Liquid; for speed of sound: Sing-around technique in a fixed-path interferometer; for molar conductivity: digital conductivity meter

O=P([O-])([O-])[O-].[Na+].[Na+].[Na+] [trisodium phosphate] + O
Settings	mass density, 283.15 K [kg/m3]	mass density, 288.15 K [kg/m3]	molar conductivity, 283.15 K [S·m2/mol]	molar conductivity, 288.15 K [S·m2/mol]	molar conductivity, 293.15 K [S·m2/mol]	speed of sound, 283.15 K [m/s]	speed of sound, 288.15 K [m/s]	speed of sound, 293.15 K [m/s]
m1 = 0.0026	–	–	0.0382	0.0395	0.0406	–	–	–
m1 = 0.0039	–	–	0.0361	0.0369	0.0379	–	–	–
m1 = 0.0053	–	–	0.0348	0.0363	0.038	–	–	–
m1 = 0.0089	1001.51	1000.88	–	–	–	1450.7	1469	1485.1
m1 = 0.0105	1001.84	1001.2	0.0306	0.0325	0.0342	1451.2	1469.5	1485.6
m1 = 0.0116	1002.06	1001.42	–	–	–	1451.5	1469.8	1486
m1 = 0.0132	1002.38	1001.74	0.0293	0.0318	0.0333	1452	1470.2	1486.3
m1 = 0.0183	1003.44	1002.77	0.0275	0.0292	0.0309	1453.4	1471.6	1487.7
m1 = 0.0234	1004.45	1003.77	0.0259	0.0281	0.0297	1455	1473.1	1489.2
m1 = 0.0342	1006.62	1005.91	0.0234	0.0253	0.0264	1457.8	1475.8	1491.8
m1 = 0.045	1008.77	1008.04	0.0218	0.0236	0.0249	1460.7	1478.6	1494.5
m1 = 0.0563	1011	1010.23	0.0211	0.0223	0.0236	1463.6	1481.5	1497.3
m1 = 0.0662	1012.94	1012.15	0.0197	0.0216	0.0227	1466.1	1483.9	1499.7
m1 = 0.0767	–	–	0.0192	0.021	0.0218	–	–	–
m1 = 0.088	1017.25	1016.4	0.0186	0.0199	0.0209	1471.7	1489.3	1504.9
m1 = 0.0968	1018.97	1018.1	0.0179	0.0196	–	1473.9	1491.5	1507
m1 = 0.1086	1021.25	1020.35	0.0178	0.0191	–	1476.8	1494.3	1509.7
m1 = 0.1133	1022.18	1021.28	0.0173	0.0188	–	1477.9	1495.4	1510.8
m1 = 0.1296	1025.36	1024.4	0.0166	0.0181	–	1482	1499.3	1514.6
m1 = 0.141	1027.58	1026.61	0.0161	0.0175	–	1484.8	1502.1	1517.3
m1 = 0.1515	1029.56	1028.56	0.0158	0.0174	–	1487.3	1504.5	1519.7
m1 = 0.1638	1031.95	1030.93	0.0159	0.0174	–	1490.3	1507.4	1522.5
m1 = 0.1755	1034.17	1033.12	0.0155	0.0168	–	1493.1	1510.1	1525.2
m1 = 0.1868	1036.39	1035.32	0.0153	0.0165	–	1496	1512.9	1527.8
m1 = 0.1954	1037.96	1036.87	0.0154	0.0162	–	1498	1514.8	1529.7
m1 = 0.2224	1043.23	1042.08	0.0145	0.0153	–	1504.6	1521.3	1536
m1 = 0.2333	1045.32	1044.14	0.0143	0.0152	–	1507.2	1523.9	1538.5
m1 = 0.2509	1048.59	1047.38	0.0142	0.015	–	1511.4	1527.9	1542.4
